From US20120100568A1, “SERUM-FREE MEDIUM FOR INDUCING PLURIPOTENT STEM CELLS QUICKLY WITH HIGH EFFICIENCY AND METHOD USING THEREOF” (GUANGZHOU INSTITUTES OF BIOMEDICINE AND HEALTH, CHINESE …, priority 2009, published 2012)

How the values were obtained:
MEF cells [1] = assay: Screening compounds in the iPS process in iPS-SF1 medium (relative GFP efficiency by FACS); assay type: cell-based, mouse; conditions: iPS-SF1, four factors, day 7; for effect on the efficiency of iPS reprogramming (relative GFP efficiency): PD0325901 1 μM, CHIR99021 3 μM, SU5402 2 μM; for enhancement of the efficiency of iPS reprogramming (relative GFP efficiency): TSA 20 nM, VPA 1 mM
Procedure: The main method for quantifying reprogramming efficiency is FACS analysis for Oct4-GFP positive cells. Based on the results of the timing process, the infected MEF cells were digested with trypsin at days 7 and 9 after infection and then analyzed through FACSCalibur. GFP positive cells received the gates of control signals from PE pathway, and 15,000 events were recorded as a minimum. Cells infected with pMXs-FLAG were used as negative control. In order to verify the efficiency as analyzed by FACS, GFP positive colonies were counted directly under a fluorescence microscope at day 14 after infection.
20,000 MEF cells were plated in each well of a twelve-well plate. The medium was iPS-SF1. Then, the cells were infected with viruses as described above in order to be transfected with the four factors. The compounds as shown in FIG. 6 were added into the medium at the following concentrations respectively: PD0325901 (1 μM), CHIR99021 (3 μM), SU5402 (2 μM, EMDbiosciences), Y-27632 (10 μM), vitamin E (25 μM, Sigma), vitamin A (1 μM, Sigma), A83-01 (0.5 μM, EMD), SB203580 (2 μM), Dorspmorphin (3 μM, Sigma), PFF-α (10 μM), TSA (20 nM, Sigma), VPA (1 mM, EMD), JAK inhibitor (0.3 μM, EMD), 5aza-DC (1 μM, Sigma), BIX01294 (1 μM), Bayk8644 (2 μM, EMD).
At day 7 after infection, cells were collected for FACS analysis as described above, and the relative GFP efficiency was measured. […] However, under conditions using the medium of the present invention, the compounds that had been previously reported as favorable to self-renewal of mouse embryonic stem cells, such as PD0325901, CHIR99021, and SU5402 reduced the efficiency of iPS reprogramming.

MEF cells [2] = assay: Effects of medium components, growth factors and serum on iPS reprogramming efficiency (Oct4-GFP FACS); assay type: cell-based, mouse; conditions: for effect on the induction of the iPS reprogramming process: added to iPS-SF1 without bFGF, four factors, Oct4-GFP at day 7
Procedure: The main method for quantifying reprogramming efficiency is FACS analysis for Oct4-GFP positive cells. Based on the results of the timing process, the infected MEF cells were digested with trypsin at days 7 and 9 after infection and then analyzed through FACSCalibur. GFP positive cells received the gates of control signals from PE pathway, and 15,000 events were recorded as a minimum. Cells infected with pMXs-FLAG were used as negative control. In order to verify the efficiency as analyzed by FACS, GFP positive colonies were counted directly under a fluorescence microscope at day 14 after infection. LIF, N2, and bFGF in iPS-SF1 medium as listed in Table 1 were deleted respectively, or N2 and bFGF were added into DMEM+10% KOSR (i.e., containing no growth factor but containing NEAA, L-Glutamine or other ingredients at the same time, called as bKSR hereinafter) medium at concentrations equivalent to that of iPS-SF1 respectively, in order to detect the effects of LIF, N2, bFGF on the iPS reprogramming efficiency of MEF cells transfected with the four factors. […] In order to verify whether other tyrosine kinases and estrogens can play a role in inducing reprogramming of iPS cells in the medium of the present invention, after MEF cells were infected with the four-factor viruses, the following media were used instead, wherein the blank control was iPS-SF1 without bFGF, the experimental group was the blank medium (i.e., iPS-SF1 without bFGF) supplemented with various receptor tyrosine kinases (including basic fibroblast growth factor bFGF, epidermal growth factor EGF, vascular endothelial growth factor VEGF, insulin-like growth factor 2 IGF2, and estradiol), and a serum medium (FBS) was used as the negative control of this experiment.

Molecule: Cc1c[nH]c(-c2cnc(NCCNc3ccc(C#N)cn3)nc2-c2ccc(Cl)cc2Cl)n1 [CHIR99021]
- effect on the efficiency of iPS reprogramming (relative GFP efficiency) (MEF cells [1]): reduced

Molecule: O=C(NOC[C@H](O)CO)c1ccc(F)c(F)c1Nc1ccc(I)cc1F [PD0325901]
- effect on the efficiency of iPS reprogramming (relative GFP efficiency) (MEF cells [1]): reduced

Molecule: Cc1c[nH]c(/C=C2\C(=O)Nc3ccccc32)c1CCC(=O)O [SU5402]
- effect on the efficiency of iPS reprogramming (relative GFP efficiency) (MEF cells [1]): reduced

Molecule: CC(/C=C/C(=O)NO)=C\[C@@H](C)C(=O)c1ccc(N(C)C)cc1 [TSA]
- enhancement of the efficiency of iPS reprogramming (relative GFP efficiency) (MEF cells [1]): 100%

Molecule: CCCC(CCC)C(=O)O [VPA]
- enhancement of the efficiency of iPS reprogramming (relative GFP efficiency) (MEF cells [1]): 100%

Molecule: C[C@]12CC[C@@H]3c4ccc(O)cc4CC[C@H]3[C@@H]1CC[C@@H]2O [estrogen, estradiol]
- effect on the induction of the iPS reprogramming process (MEF cells [2]): comparable effects

Molecule: basic fibroblast growth factor [bFGF]
- effects on iPS reprogramming efficiency (MEF cells [2]; component added to bKSR or deleted from iPS-SF1, four factors, day 7): even higher than those of LIF

Molecule: epidermal growth factor (NSDSECPLSHDGYCLHDGVCMYIEALDKYACNCVVGYIGERCQYRDLKWWELR; Epidermal growth factor; UniProt P01133 971-1023, looked up) [EGF]
- effect on the induction of the iPS reprogramming process (MEF cells [2]): comparable effects

Molecule: insulin-like growth factor 2 [IGF2]
- effect on the induction of the iPS reprogramming process (MEF cells [2]): comparable effects

Molecule: vascular endothelial growth factor [VEGF]
- effect on the induction of the iPS reprogramming process (MEF cells [2]): comparable effects
